Patent US20070015799A1, “Glyoxalase inhibitors” (priority 2003, published 2007)

What was measured:
[1] = biological target: T1, Recombinant human glyoxalase I (Homo sapiens, UniProt Q04760); assay: Glyoxalase I inhibition assay (96-well kinetic spectrophotometric assay, 240 nm); format: biochemical; settings: for inhibition at 20 µM: 20 μM compound, Vmax relative to control without inhibitor, pH 6.6, 25° C.; for IC50: concentration giving 50% of the vehicle control response
T1 construct: made in house; host or cells: E. coli
T1 sequence (Q04760 2-184 limits assumed): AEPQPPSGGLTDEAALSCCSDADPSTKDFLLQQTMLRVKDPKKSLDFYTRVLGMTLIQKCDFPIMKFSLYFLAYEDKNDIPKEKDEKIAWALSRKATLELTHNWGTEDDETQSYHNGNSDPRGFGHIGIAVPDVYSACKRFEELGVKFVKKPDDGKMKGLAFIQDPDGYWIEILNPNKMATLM
From the text: Glyoxalase I catalyses the formation of S-D-lactoylglutathione from the hemithioacetal that forms non-enzymatically from methylglyoxal and reduced glutathione (GSH). The standard literature assay is a cuvette-based spectrophotometric method using the product of glyoxalase I, S-D-lactoylglutathione, as the chromophore (240 nm) (Racker, J. Biol. Chem. 190, 685-686 (1951); Principato et al., Biochem International 6, 249-255 (1983)). This literature method was modified for use as a 96-well plate, kinetic assay.
The buffer (0.1M potassium phosphate buffer pH 6.6) and inhibitors are added to appropriate wells of a 96 well plate. Methylglyoxal (prepared in potassium phosphate buffer pH 6.6) and reduced glutathione (prepared in potassium phosphate buffer pH 6.6) are added to appropriate wells. These reagents are incubated for 15 minutes, shaking at room temperature to allow the formation of the hemithioacetal substrate of glyoxalase I. Recombinant human glyoxalase I (expressed in E. coli. and purified by S-hexylglutathione-agarose chromatography as described in Ridderstorm M. and Mannervik B., Biochem J. 314, 463-467 (1996)) is added and the plate is shaken briefly, before being placed in a Spectra Max 190 microplate spectrophotometer (Molecular Devices) at 25° C. Absorbance is monitored at 240 nm, with readings being taken every 30 seconds. The reaction is monitored for 15 minutes and PathCheck® measurements are taken on completion of the assay and the absorbance values normalized to a 1 cm pathlength. The integral software determines the Vmax using the first 20 readings. S-hexylglutathione is used as a positive control in the assays.
Data are expressed as a percentage of the control Vmax, measured in the absence of inhibitor.
Compounds iv, A, ix and E from examples 1 to 4 above respectively were subjected to the above glyoxalase I binding assay at a concentration of 20 μM (20 micromolar). Inhibitory effects are expressed in table 2 as either IC50 values, defined as the concentration, in μM, of the compound that results in 50% of the vehicle control response, or as the percentage of the vehicle control response at the highest concentration of compound tested.

[2] = system: HL60 (human promyelocytic leukaemia) cells; assay: HL60 cell assay (WST-1 growth inhibition); format: cell-based; settings: for IC50: concentration giving 50% of the vehicle control response; for % proliferation inhibition in HL60s: highest concentration tested (range 20-1.25 μM), mean of six replicates
Procedure: HL60 (human promyelocytic leukaemia) cells were seeded (50 μl/well) at a density between 0.25-0.4×10^5/ml in a 96 multi-well plate. Twenty four hours later 50 μl. of the relevant compound dilution made up in culture medium was added to the wells (final concentration range 20-1.25 μM in 0.1% DMSO). After incubating at 37° C. in a 5% CO2 atmosphere for a further 72 hours, assessment of growth inhibitory effects of compounds was measured using a colorimetric assay that is based on the cleavage of the tetrazolium salt WST-1 (Roche) by mitochondrial dehydrogenase in viable cells. WST-1 reagent (10 μl) was added to each well and the plate was agitated for 1 min. After a 3-4 hour incubation at 37° C. in a 5% CO2 incubator the absorbance at 450 nm was read spectrophotometrically, after subtraction of a reference wavelength absorbance, at […].
Compounds iv, ix and E from examples 1, 3 and 4 above respectively were subjected to the above cell assay. Results were the mean of six replicates and were expressed as the percentage of the DMSO vehicle control response. Inhibitory effects are expressed in table 3 in the form of either IC50 values, which was defined as the concentration (μM) of compound that results in 50% of the vehicle control response, or as the % of vehicle control response at the highest concentration of compound tested.

[3] = Homo sapiens, HL-60, 72 hours incubation

SMILES	inhibition at 20 µM [1] [%]	further results
COC(=O)c1ccccc1CSc1ccc(CN(O)C(=O)c2ccccc2)cc1 [Compound ix, 2-{4-[(Benzoyl-hydroxy-amino)-methyl]-phenylsulfanylmethyl}-benzoic acid methyl ester]	0	IC50 [2, 3]: 15 µM
CC(C)C(Sc1nc(-c2ccccc2)cc(-c2ccccc2)c1C#N)C(=O)O (stereo not shown) [Compound 25]	≥ 30	–
O=C(O)c1ccccc1CSc1ccc(CN(O)C(=O)c2ccccc2)cc1 [E, 2-{4-[(Benzoyl-hydroxy-amino)-methyl]-phenylsulfanylmethyl}-benzoic acid]	–	IC50 [1]: 1.9 to 2.26 µM; % proliferation inhibition in HL60s ([2]; 72 hours incubation): 4%
COc1ccc(-c2cc(-c3cccs3)nc(SC(C(=O)O)c3ccccc3)c2C#N)cc1 (stereo not shown) [Compound 11]	≥ 30	–
Cc1ccc(-c2cc(-c3ccccc3)c(C#N)c(SCC(=O)Nc3ccc(C(=O)O)cc3)n2)cc1 [Compound 9]	≥ 30	–
O=C(O)C(Sc1ccc(CN(O)C(=O)c2ccccc2)cc1)c1ccccc1 (stereo not shown) [A, {4-[(Benzoyl-hydroxy-amino)-methyl]-phenylsulfanyl)-phenyl-acetic acid]	–	IC50 [1]: 9.7 µM
O=C(CSc1ccccc1C(=O)O)c1ccc(-c2ccccc2)cc1 [Compound 3, 2-(2-Biphenyl-4-yl-2-oxo-ethylsulfanyl)-benzoic acid]	≥ 30	–
N#Cc1c(-c2ccc(Cl)cc2)cc(-c2cccs2)nc1SC(C(=O)O)c1ccccc1 (stereo not shown) [Compound 1]	≥ 30	–
CCOC(=O)c1ccccc1SCC(=O)c1ccc(-c2ccccc2)cc1 [ethyl ester of compound 3]	–	IC50 ([2]; 72 hours incubation): 7.5 µM; % proliferation inhibition in HL60s ([2]; 72 hours incubation): 72%
COc1ccc(-c2cc(-c3ccccc3)nc(SC(C(=O)O)c3ccccc3)c2C#N)cc1 (stereo not shown) [Compound 2]	≥ 30	–
COc1ccc(-c2cc(-c3ccccc3)nc(SCc3ccccc3C(=O)O)c2C#N)cc1 [Compound 4]	≥ 30	–
CCOC(=O)C(Sc1ccc(CN(O)C(=O)c2ccccc2)cc1)c1ccccc1 (stereo not shown) [iv, {4-[(Benzoyl-hydroxy-amino)-methyl]-phenylsulfanyl}-phenyl-acetic acid ethyl ester]	28.5	IC50 [2, 3]: 8.3 µM; % proliferation inhibition in HL60s ([2]; 72 hours incubation): 80%
N#Cc1c(-c2ccccc2)cc(-c2cccs2)nc1SC(C(=O)O)c1ccccc1 (stereo not shown) [Compound 14]	≥ 30	–
N#Cc1c(-c2cccs2)cc(-c2cccs2)nc1SC(C(=O)O)c1ccccc1 (stereo not shown) [Compound 13]	≥ 30	–
